Data from patent US20230203043A1, “NOVEL IMIDAZOPYRAZINE DERIVATIVES” (Hoffmann-La Roche Inc., priority 2020, published 2023).
Where a name gives a salt, the structure may show the parent alone. Read-outs that look alike come from different tables or passages of the source.

How the values were obtained:
[1] = system: Acinetobacter baumannii ATCC17961; assay: Antimicrobial susceptibility testing: 90% growth inhibitory concentration (IC90) determination in Iso-Sensitest broth, OD600 growth; type: cell-based
Method in brief: (§1)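 Serial twofold dilution, 10 points, e.g. 50–0.097 μM final; ~5×10^(5) CFU/ml; 35±2° C, 16 h; kinetic OD600 every 20 min; IC90 from log-phase inhibition.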

[2] = system: Acinetobacter baumannii ATCC17968; assay: as above; type: cell-based
Method in brief: as §1

[3] = Acinetobacter baumannii, ATCC17961, 16 h, strain ATCC 17961, OD600 growth over 16 h, read-out: A. baumannii ATCC 17961 IC90
[4] = strain ATCC 17961, OD600 growth over 16 h, read-out: A. baumannii ATCC 17961 IC90
[5] = strain ATCC 17978, Iso-Sensitest broth, OD600 growth over 16 h, read-out: A. baumannii ATCC 17978 IC90
[6] = Acinetobacter baumannii, ATCC17961, 16 h, read-out: A. baumannii ATCC 17961 IC90 (uM), strain ATCC 17961, OD600 growth over 16 h

Compound: CCc1cc(Nc2nccn3c(-c4cn(C)nc4C(F)(F)F)cnc23)ccc1C(=O)NCCOCCN [Example 1, N-[2-(2-aminoethoxy)ethyl]-2-ethyl-4-[[3-[1-methyl-3-(trifluoromethyl)pyrazol-4-yl]imidazo[1,2-a]pyrazin-8-yl]amino]benzamide]
- IC90 [1, 3]: 0.623 µM
- IC90 ([2]; Acinetobacter baumannii, ATCC 17968 / ATCC 17978, strain ATCC 17978, Iso-Sensitest broth, OD600 growth over 16 h, read-out: A. baumannii ATCC 17978 IC90): 0.93 µM

Compound: CCc1cc(Nc2nccn3c(-c4cnn(CC(F)F)c4)cnc23)ccc1C(=O)NCCOCCN [Example 21, N-[2-(2-aminoethoxy)ethyl]-4-[[3-[1-(2,2-difluoroethyl)pyrazol-4-yl]imidazo[1,2-a]pyrazin-8-yl]amino]-2-ethylbenzamide formate]
- IC90 ([2]; Acinetobacter baumannii, ATCC 17968 / ATCC 17978, 16 h, read-out: A. baumannii ATCC 17978 IC90 (uM)): 4.43 µM

Compound: N-[2-(2- aminoethoxy)ethyl]- 2-ethyl-4-[[3- [1- (methoxymethyl)- 3- (trifluoromeethyl) pyrazol-4- yl]imidazo[1,2- a]pyrazin-8- yl]amino] benzamide formate [Example 22]
- IC90 [1, 4]: 1.84 µM
- IC90 [2, 5]: 1.84 µM

Compound: CCc1cc(Nc2nccn3c(-c4c[nH]nc4C(F)(F)F)cnc23)ccc1C(=O)NCCOCCN [Example 23, N-[2-(2-aminoethoxy)ethyl]-2-ethyl-4-[[3-[3-(trifluoromeethyl) 1H-pyrazol-4-yl]imidazo[1,2-a]pyrazin-8-yl]amino] benzamide formate]
- IC90 [1, 4]: 0.128 µM
- IC90 [2, 5]: 0.297 µM

Compound: CCc1cc(Nc2nccn3c(-c4cn(CC(F)F)nc4C(F)(F)F)cnc23)ccc1C(=O)NCC(=O)NCC1(O)CCNCC1 [Example 551, 4-[[3-[1-(2,2-difluoroethyl)-3-(trifluoromethyl)pyrazol-4-yl]imidazo[1,2-a]pyrazin-8-yl]amino]-2-ethyl-N-[2-[(4-hydroxy-4-piperidyl)methylamino]-2-oxo-ethyl]benzamide formate]
- IC90 [1, 6]: 0.357 µM

Compound: Cc1cc(Nc2nccn3c(-c4cn(CC#N)nc4C(F)(F)F)cnc23)cc(F)c1C(=O)N[C@H](C)CNC(=O)CN [Example 689, (R)-N-(1-(2-aminoacetamido)propan-2-yl)-4-((3-(1-(cyanomethyl)-3-(trifluoromethyl)-1H-pyrazol-4-yl)imidazo[1,2-a]pyrazin-8-yl)amino)-2-fluoro-6-methylbenzamide formate]
- IC90 [1, 6]: 0.351 µM

Compound: C[C@@H](N)C(=O)N1CCN(C(=O)c2ccc(Nc3nccn4c(-c5cn(CC#N)nc5C(F)(F)F)cnc34)cc2Cl)CC1 [Example 188, 2-[4-[8-[4-[4-[(2R)-2-aminopropanoyl]piperazine-1-carbonyl]-3-chloroanilino]imidazo[1,2-a]pyrazin-3-yl]-3-(trifluoromethyl)pyrazol-1-yl]acetonitrile]
- IC90 [1, 3]: 0.197 µM

Compound: CCc1cc(Nc2nccn3c(-c4cn(CC(F)F)nc4C(F)F)cnc23)ccc1C(=O)N1CCN(C(=O)CN)CC1 [Example 766, 2-amino-1-(4-(4-((3-(1-(2,2-difluoroethyl)-3-(difluoromethyl)-1H-pyrazol-4-yl)imidazo[1,2-a]pyrazin-8-yl)amino)-2-ethylbenzoyl)piperazin-1-yl)ethan-1-one]
- IC90 [1, 3]: 0.903 µM

Compound: C=CCn1cc(-c2cnc3c(Nc4cc(C)c(C(=O)N[C@H](C)CN)c(F)c4)nccn23)c(C(F)(F)F)n1 [Example 680, (R)-4-((3-(1-allyl-3-(trifluoromethyl)-1H-pyrazol-4-yl)imidazo[1,2-a]pyrazin-8-yl)amino)-N-(1-aminopropan-2-yl)-2-fluoro-6-methylbenzamide]
- IC90 [1, 3]: 0.326 µM

Compound: CCc1cc(Nc2nccn3c(-c4cn(CC#N)nc4C(F)(F)F)cnc23)ccc1C(=O)NCCCNC(=O)CCN [Example 702, N-(3-(3-aminopropanamido)propyl)-4-((3-(1-(cyanomethyl)-3-(trifluoromethyl)-1H-pyrazol-4-yl)imidazo[1,2-a]pyrazin-8-yl)amino)-2-ethylbenzamide formate]
- IC90 [1, 6]: 0.383 µM

Compound: C#CC(C)n1cc(-c2cnc3c(Nc4ccc(C(=O)N5CCN(C(=O)[C@H](N)C(C)C)CC5)c(CC)c4)nccn23)c(C(F)F)n1 (mixture of isomers) [Example 799, (2R)-2-amino-1-(4-(4-((3-(1-(but-3-yn-2-yl)-3-(difluoromethyl)-1H-pyrazol-4-yl)imidazo [1,2-a]pyrazin-8-yl)amino)-2-ethylbenzoyl)piperazin-1-yl)-3-methylbutan-1-one (mixture of epimers)]
- IC90 [1, 3]: 2.74 µM

Compound: CCc1cc(Nc2nccn3c(-c4cn(CC5CCC5)nc4C(F)(F)F)cnc23)ccc1C(=O)NCCOCCN [Example 303, N-[2-(2-aminoethoxy)ethyl]-4-[[3-[1-(cyclobutylmethyl)-3-(trifluoromethyl)pyrazol-4-yl]imidazo[1,2-a]pyrazin-8-yl]amino]-2-ethylbenzamide formate]
- IC90 [1, 6]: 0.201 µM

Compound: CCc1cc(Nc2nccn3c(-c4cn(CCN5CCCC5)nc4C(F)(F)F)cnc23)ccc1C(=O)NCCOCCN [Example 269, N-[2-(2-aminoethoxy)ethyl]-2-ethyl-4-[[3-[1-(2-pyrrolidin-1-ylethyl)-3-(trifluoromethyl)pyrazol-4-yl]imidazo[1,2-a]pyrazin-8-yl]amino]benzamide]
- IC90 [1, 3]: 1.39 µM

Compound: O=C(c1ccc(Nc2nccn3c(-c4c[nH]nc4C(F)(F)F)cnc23)cc1Cl)N1CCN(C(=O)[C@H]2CCNC2)CC1 [Example 208, [2-chloro-4-[[3-[3-(trifluoromethyl)-1H-pyrazol-4-yl]imidazo[1,2-a]pyrazin-8-yl]amino]phenyl]-[4-[(3S)-pyrrolidine-3-carbonyl]piperazin-1-yl]methanone]
- IC90 [1, 3]: 0.232 µM
